Reference: patent US6127387A, “Use of CD4-binding small molecules to inhibit immune responses” (Thomas Jefferson University, priority 1997, dated 2000)
“Also recorded” adds a separate entry of the source.

Columns and labels:
CD4-MHC class II binding = target: T1, CD4-MHC class II binding (Homo sapiens, UniProt P01730); assay: CD4-MHC class II cell adhesion (rosette formation) assay, CD4-transfected COS-7 cells with Raji B cells; type: cell-based; conditions: 100 μM compound, FIG. 2
T1 construct: expressed in transfected cells; host or cells: COS-7 cells (CD4, plasmid T4-pcDNA3); Raji B cells (endogenous MHC class II)
From the text: The capacity of a compound to inhibit the interaction of CD4 and class II MHC gene products can be determined by a cell rosetting assay. A cell line, such as Cos-7, Cos-1 or the like, can be transiently transfected with a plasmid bearing a human CD4 cDNA operably linked to a promoter. In an alternative embodiment a COS-1 cell line can be stably transformed with a human CD4 expression plasmid. The human CD4expressing cells and a human class II MHC expressing cell are mixed so that cellular rosettes are formed.
No inhibition of resetting was observed when CD8-pcDNA3 transfected cells were rosetted with Raji cells, which also express MHC, class I products.
The sequence of human CD4 CDNA is given in Maddon, P. J. et al., 1985, CELL 42:93-104, which sequence is hereby incorporated by reference in its entirety. Maddon et al. refers to human CD4 as "T4." The plasmid T4-pMV7, containing the human CD4 cDNA is available from the AIDS Research and Reference Reagent Program, Division of AIDS, NIAID, NIH (McKesson BioServices, Rockville, Md.). The 3.0 Kb Eco R1 fragment of T4-pMV7 contains the 1.5 Kb CD4 CDNA.
For transfection of COS-7 cells, a CD4-expression plasmid T4-pcDNA3, was constructed by subcloning the 3.0 Kb Eco R1 fragment of T4-pMV7 into the EcoRI site of the mammalian expression vector pcDNA3 (INVITROGEN). Transfection was accomplished by DOSPER liposomal transfection reagent (BOEHRINGER MANNHEIM), by the following modification of the manufacturer's protocol.
9. Determine the CD4 expression levels as a measure of transfection efficiency by flow cytometry analysis. Usually between 30% and 40% of transfected COS-7 cells expressed human CD4 as defined by immunofluorescence binding assay for the interaction between CD4 and class II MHC proteins in the presence of organic chemicals by rosette formation: Raji B cells 10^7 in 1 ml of RPMI medium with 10% FCS and […] were added to each well 48 h post-transfection and incubated with transfected COS-7 cells in the presence of the test compound (individually 200 μM) at 37° C. for 1 h. Following incubation, wells were washed five or six times by dropping RPMI medium with FCS into wells. Rosette formation between Raji cells and transfected COS-7 cells was scored microscopically at 100-fold magnification. The number of rosette containing more than five Raji cells was counted in 10 random optical fields in each individual well; 300-400 rosettes per well were counted as the positive control for rosette formation without any inhibition in the absence of any chemicals. The inhibition activity for rosette formation for each chemical was determined by the ratio of the number of rosettes obtained in the presence of this chemical to the number of rosettes in the positive control. […]

[1] = tested on: C57B1/6 mice challenged with C57B1/6.H-2^bm12 tail skin; assay: Class II MHC disparate skin allograft rejection (CD4+ T cell-mediated B6 anti-bm12 response); type: in vivo, mouse; conditions: TJU103 single i.v. 100 μg in 0.5% DMSO 3 hours before transplantation, vs 0.5% DMSO diluent, FIG. 6
Method: The lead organic compounds were tested for inhibition of CD4^+ T cell-mediated skin allograft rejection using the MHC class II disparate model of C57B1/6 mice challenged with C57B1/6.H-2^bm12 tail skin. Following a modified method of Bailey and Usama (1960, Transplant. Bull. 7:424-425), donor tail skin grafts (0.25 cm×0.5 cm) were transplanted onto the ventral side of the tail of the recipient mouse, covered with a glass tube and held into position with short strips of adhesive tape for 2 days. The tubes were removed and the grafts monitored every other day for up to 80 days. […] Syngeneic grafts were also transplanted as negative controls for rejection. Median survival times (MST) were calculated and statistical comparisons were performed by Wilcoxin signed-rank non-parametric analysis utilizing SYSTAT 5.2 software.
The compounds were injected 3 hours before transplantation at a dosage of 50 μg in 0.2 ml 0.25% DMSO. […] Each group contained 4 animals except the TJU102 group, which contained 5 animals.
The lead organic compound TJU103 (N-(3-indoylmethylene)-isonicotinic hydrazone) was tested for inhibition of CD4^+ T cell-mediated skin allograft rejection using the CD4^+ T cell-mediated B6 anti-bm12 response. […] Median survival times were calculated and statistical comparisons were performed by Wilcoxin signed-rank non-parametric analysis using SYSTAT 5.2 software.

[2] = tested on: B6 recipient mice with bm1 tail skin allografts; assay: Class I MHC disparate skin allograft survival (CD8+ T cell-mediated B6 anti-bm1 response); type: in vivo, mouse; conditions: TJU103 single i.v. 100 μg in 0.5% DMSO 3 hours before transplantation, vs 0.5% DMSO diluent, FIG. 7
Method: The lead organic compound TJU103 (N-(3-indoylmethylene)-isonicotinic hydrazone) was tested for inhibition of CD8^+ T-cell mediated allograft survival using the CD8^+ T cell-mediated B6 anti-bm1 response. A single i.v. injection of 100 μg of TJU103 in 0.5% DMSO was administered into B6 recipient mice 3 hours before transplantation of MHC class I-disparate bm1 tail skin allografts following a modified method of Bailey and Usama (1960, Transplant Bull. 7:424 425). A group of mice were treated with anti-CD8 monoclonal antibody (2.43) as a […]. Median survival times were calculated and statistical comparisons were performed by Wilcoxin signed-rank non-parametric analysis using SYSTAT 5.2 software.

SJL mice = assay: EAE inhibition in vivo (PLP-induced acute EAE); design: species or system mouse; conditions: single i.v. injection of 50 μg in 0.25% DMSO on day 12 post-challenge, FIG. 3
Method: The lead organic compounds were tested for in vivo immunosuppressive activity in murine EAE, an animal model for multiple sclerosis. An acute form of EAE was induced in SJL mice by subcutaneous challenge with proteolipid (PLP) epitope, MacRae, B. L., et al., 1995, J. Neuroimmunol. 60:17-28, (100 μg in 0.15 ml PBS emulsified in an equal volume of Complete Freund's Adjuvant) on days 0 and 7. Pertussis (Michigan Biological Products, Lansing Mich.) was administered 30 min after antigen injection on day 7 (0.25 ml containing 5×10^9 inactivated organisms, i.v.). Clinical symptoms of EAE were evaluated based on a 0-5 scale of ascending severity of symptoms, as previously described. Korngold, R., et al., 1986, Immunogenetics 24:309-315. The organic compounds were administered by a single i.v. injection of 50 μg of the compound in 0.25% DMSO (the compounds were not soluble in water alone) on day 12 post-challenge.

[3] = tested on: (B6×CBA)F1 irradiated recipient mice; assay: CD4+ T cell-mediated graft-versus-host disease lethality; type: in vivo, mouse; conditions: 100 μg i.v. in 0.5% DMSO on days 0, 3 and 6 post-transplant, vs untreated control, p<0.001, FIG. 5
Method: The lead organic compound TJU103 (N-(3-indoylmethylene)-isonicotinic hydrazone) was tested for in vivo inhibition of CD4^+ T cell-mediatedgraft-versus-host disease lethality. (B6×CBA)F1 irradiated recipient mice were transplanted by i.v. injection with haploidentical (B6×DBA/2)F1 T cell-depleted bone marrow (ATBM) and CD4^+ T cells (3×10^6), which induces lethal graft-versus-host disease (GVHD). TJU103 was administered by i.v. injections at a dose of 100 μg in 0.5% DMSO on days 0, 3, and 6 post-transplant. […] Median survival times were calculated and statistical comparisons were performed by Wilcoxin signed-rank non-parametric analysis using SYSTAT 5.2 software.

| SMILES | inhibition at 100 µM (CD4-MHC class II binding) [%] | survival time of bm12 allografts [1] | survival time of bm1 allografts [2] | severity of EAE (SJL mice) | median survival time of GVHD recipients [3] |
| --- | --- | --- | --- | --- | --- |
| Cn1c(CSCc2nc(-c3ccc(Cl)cc3)cs2)nnc1SCc1ccc(Cl)cc1 [TJU101, 5-(4-chlorobenzylthio)-3-{[(4-chlorophenyl)-2-thiazolyl]methylthiomethyl}-4-methyl-1,2,4-triazole] | > 40 |  |  |  |  |
| COc1ccc(-c2cn3c(n2)sc2ccccc23)cc1 [TJU102] | > 40 |  |  |  |  |
| O=C(NN=Cc1c[nH]c2ccccc12)c1ccncc1 [TJU103, N-(3-indoylmethylene)-isonicotinic hydrazone] | > 40 | prolongs survival time of the allografts; also recorded: effective in prolonging the median survival time of the allografts | does not prolong survival time of the allografts | statistically significant effect | significantly prolongs the median survival time; also recorded: effective in prolonging median survival time |
| O=C(Nc1ccc(Cl)cc1Cl)c1nc(Cn2cncn2)n[nH]1 [TJU104, N-(2,4-dichlorophenyl)-3-(1,2,4-triazol-1-ylmethyl)-1,2,4-triazole-5-carboxamide] | > 40 |  |  | statistically significant effect |  |
